Patent publication US10736912B2, “Compositions containing PUFA and/or uridine and methods of use thereof” (MASSACHUSETTS INSTITUE OF TECHNOLOGY, priority 2005, dated 2020)

Columns and labels:
[1] = tested on: Rat hippocampal cells; assay: 14C-choline incorporation into PC in cultured hippocampal neurons; assay type: cell-based; details: DHA+choline pre-treatment; 14C-choline 2 h; FIG. 10
Experimental: Rat hippocampal cells were cultured for 3 weeks in Neutrobasal plus B27 medium, to reach full maturation. On the day of the experiment, cells were incubated with DMEM+choline, with or without added DHA. ^14C-choline was added, cells were incubated for an additional 2 h, and newly-formed ^14C-labeled PC was extracted and measured as described in Example 1.
To determine the effect of DHA on phospholipids in neurons in short-term culture, neurons were pre-treated with DHA+choline. […] These findings confirm that DHA increases phospholipid levels in brain and neural cells.

[2] = tested on: brain phospholipid levels; assay: Brain phospholipid levels in rat pups of treated pregnant and nursing mothers; assay type: in vivo; details: for PC / PE / PI / SM / Total Phospholipids: rat pups, postnatal day 20, mean
Experimental: In another study, pregnant rats were allowed to consume ad libitum, for 10 days before parturition and 20 days while nursing, either a choline-containing control diet or this diet supplemented with uridine as UMP; half of each group also received DHA or its diluent daily, by gavage. Pups were then sacrificed and brain slices were examined to determine numbers of hippocampal dendritic spines.
Pregnant and nursing rats were administered DHA and/or uridine as described in Example 9. At 20 days post-birth, rats were sacrificed and brain samples were obtained and assayed for phospholipids. Administration of DHA alone increased brain PC, PI, PE, and sphingomyelin (SM) per cell (DNA) by 36, 166, 38, and 78%, respectively. UMP markedly amplified the effects of DHA to 66, 210, 68, and 99% of control, respectively (Table 8). These increases were greater than those observed in adult animals. Similar results were obtained when normalizing to protein (Table 9). Thus, administration of DHA and/or uridine to pregnant and nursing mothers is able to increase phospholipid levels in the offspring.

[3] = tested on: brain CDP-choline levels; assay: Brain CDP-choline and CDP-ethanolamine levels in gerbils; assay type: in vivo, gerbil; details: 28 days
Excerpt: FIGS. 5A and 5B. FIG. 5A illustrates the effect Effects of DHA on brain CDP-choline levels (FIG. 5A) and while FIG. 5B illustrates the effect of DHA on brain CDP-ethanolamine levels (FIG. 5B). Groups of 8 gerbils received either a control or a UMP-containing diet, and, by gavage, DHA (in a vehicle of 5% gum Arabic solution) or 5% gum Arabic solution alone for 28 days. On the 29th day brains were harvested and assayed for CDP-choline. Data are presented as means±SEM. Statistical analysis was performed using one- or two-way ANOVA followed by Tukey test. a: P<0.05 when compared with the values for control diet plus vehicle group; b: P<0.05 when compared with values for UMP diet plus vehicle group.
Aliquots (2 ml) of the upper (aqueous) phase were dried under a vacuum, reconstituted, and injected into an HPLC. The dried samples were reconstituted in 100-200 μl water and were analyzed by HPLC on an anion exchange column (Alltech Hypersil APS-2, […], 250×4.6 mm). CDP-choline was eluted with a linear gradient of buffers A (H3PO4, 1.75 mM, pH 2.9) and B (NaH2PO2, 500 mM, pH 4.5) from 0 to 100% B over period of 30 min. With this system, CDP-choline was resolved from closely co-eluting substances such as UMP in an isocratic system over a period of 40 min. The retention time for CDP-choline was 9.5 min. The column was washed with buffer B at the end of each experiment and every several days to remove retained nucleotides. Individual nucleotide peaks were detected by UV absorption at 280 nm and were identified by comparison with the positions of authentic standards, as well as by the addition of nucleotide standards to samples.
To determine the effect of PUFA administration on CDP-choline levels, brain CDP-choline levels were measured in the animals from the previous Example. Administration of DHA and/or UMP decreased CDP-choline levels (FIG. 5A) and CDP-ethanolamine levels (FIG. 5B). DHA reduced CDP-choline levels by 26% (compared with those receiving just the control diet and DHA's vehicle), and in UMP-treated gerbils by 21% (compared with those receiving UMP-containing diet and DHA's vehicle) (both P<0.05).

[4] = tested on: SHSY-5Y cells; assay: 14C-choline incorporation into phospholipids in SHSY-5Y cells; assay type: cell-based, human; details: 10 μM fatty acid, 18 hr; FIG. 3A
Experimental: SHSY-5Y cells were grown to near confluency in DMEM+10% FBS in 35 mm dishes. Cells were incubated for 18 hr in serum-free DMEM+1% FBS containing 30 μM choline+/−10 μM of DHA, arachidonic acid, or palmitic acid. Cells were then labeled, and labeled phospholipids were quantified as described for Example 1.
DHA was dissolved in ethanol to a […] concentration and frozen in 10 microliter aliquots at −80° C. For each experiment, one aliquot was diluted in ethanol to 10 micromolar; the volume giving the desired final solution in incubation medium was mixed with an equal volume of BSA solution (1 gm/ml).
The effect of omega-6 fatty acids on phospholipid synthesis was next examined in SHSY-5Y cells, a human neuroblastoma cell line. In this case, phospholipid synthesis was enhanced by arachidonic acid, an omega-6 fatty acid, but not by DHA or palmitic acid (FIG. 3A).
The effect of arachidonic acid on phospholipid synthesis in SHSY-5Y cells was further characterized as described for omega-3 fatty acids and PC-12 cells in Example 2.

[5] = Table 9, nmol per microgram DNA

For `CCC=CCC=CCC=CCC=CCC=CCC=CCCC(=O)O` [DHA, 4,7,10,13,16,19-docosahexaenoic acid], the “Increase in synthesis of phospholipids relative to cells administered choline alone” value [1] was “more than 2 fold”, the PC ([2]; Table 8, nmol per mg protein) was 115.7 nmol/mg protein and the PE ([2]; Table 8, nmol per mg protein) was 95.7 nmol/mg protein. For the same compound, the PI ([2]; Table 8, nmol per mg protein) was 5.49 nmol/mg protein, the SM ([2]; Table 8, nmol per mg protein) was 7.52 nmol/mg protein and the “Total Phospholipids” value ([2]; Table 8, nmol per mg protein) was 322.8 nmol/mg protein. The PC [2, 5] was 12.02 nmol/microgram DNA, the PE [2, 5] was 9.98 nmol/microgram DNA and the PI [2, 5] was 0.571 nmol/microgram DNA. The SM [2, 5] was 0.792 nmol/microgram DNA, the “Total Phospholipids” value [2, 5] was 33.80 nmol/microgram DNA and the “Increase in brain PC per cell (DNA)” value ([2]; rat pups 20 days post-birth) was 36%. The “Increase in brain PE per cell (DNA)” value ([2]; rat pups 20 days post-birth) was 38%, the “Increase in brain PI per cell (DNA)” value ([2]; rat pups 20 days post-birth) was 166% and the “Increase in brain sphingomyelin (SM) per cell (DNA)” value ([2]; rat pups 20 days post-birth) was 78%. The “CDP-choline levels (FIG. 5A)” value [3] was “decreased”, the “CDP-ethanolamine levels (FIG. 5B)” value [3] was “decreased” and the Phospholipid synthesis enhanced [4] was “not”.
